According to article PMC3928365, “Species-Selective Killing of Bacteria by Antimicrobial Peptide-PNAs” (PLoS ONE, 2014):

Key:
Assay in all cases: Antibiotic disc susceptibility testing (BSAC method)
Settings in all cases: antibiotic disks (Oxoid), amount per disc per antibiotic (5-30 μg)
E. coli = assay type: cell-based, Escherichia coli
Experimental: (§1) Strains were tested with twenty different antibiotic disks (Oxoid, UK) representing the major classes of antimicrobial compounds. Tests were done according to the standardized disc susceptibility testing method of the British Society for Antimicrobial Chemotherapy, [37]. The minimum inhibitory concentration (MIC) of the peptide-PNA conjugants were determined using a method modified from Hacek et al and Friedman et al: Peptide-PNA conjugants, obtained as lyophilized powder (Panagene, Korea), were dissolved in ddH20. MIC assays were performed in an ultra low-bind (Costar, UK) polystyrene 96-well plate format in a final volume of 150 µl MMLB. An extended gradient of peptide-PNA concentrations was created by combining five sets of twofold serial dilutions from four starting concentrations (10, 4.8, 3.2 […]); giving 55 final peptide-PNA concentrations which extended over five rows of the 96-well plate. All cultures were incubated at 35°C for 16 h without shaking or agitation. Each peptide-PNA MIC calculation was performed in triplicate, each replicate representing a different starting colony. Mixed-culture experiments were conducted as above with a 1×10^4 CFU/ml starting inoculum. For growth curve analysis, 200 µl cultures were grown in a BioTek PowerWave HT spectrophotometer, under constant agitation at 37°C in a 96-well plate covered with a breathable film. Growth (OD550) was monitored every 5 mins, each experiment was performed in triplicate.

S. Typhimurium = assay type: cell-based, Salmonella enterica serovar Typhimurium
Experimental: as §1

K. pneumoniae = assay type: cell-based, Klebsiella pneumoniae
Experimental: as §1

B. subtilis = assay type: cell-based, Bacillus subtilis
Experimental: as §1, with “For growth curve analysis, 200 µl cultures were grown in a BioTek PowerWave HT spectrophotometer, under constant agitation at 37°C in a 96-well plate covered with a breathable film.” left out

Compound	Sensitive (S)/Resistant (R), E. coli (E. coli)	Sensitive (S)/Resistant (R), S. Typhimurium (S. Typhimurium)	Sensitive (S)/Resistant (R), K. pneumoniae (K. pneumoniae)	Sensitive (S)/Resistant (R), B. subtilis (B. subtilis)
CC[C@H]1OC(=O)[C@H](C)[C@@H](O[C@H]2C[C@@](C)(OC)[C@@H](O)[C@H](C)O2)[C@H](C)[C@@H](O[C@@H]2O[C@H](C)C[C@H](N(C)C)[C@H]2O)[C@](C)(O)C[C@@H](C)C(=O)[C@H](C)[C@@H](O)[C@]1(C)O [Erythromycin]	R	R	R	
CC[C@H]1OC(=O)[C@H](C)[C@@H](O[C@H]2C[C@@](C)(OC)[C@@H](O)[C@H](C)O2)[C@H](C)[C@@H](O[C@@H]2O[C@H](C)C[C@H](N(C)C)[C@H]2O)[C@](C)(O)C[C@@H](C)CN(C)[C@H](C)[C@@H](O)[C@]1(C)O [Azithromycin]	R	R	R	
CCC[C@@H]1C[C@@H](C(=O)N[C@@H]([C@H]2O[C@H](SC)[C@H](O)[C@@H](O)[C@H]2O)[C@@H](C)O)N(C)C1 [Lincomycin]	R	R	R	
Neomycin	S	S	S	S
C[C@@H](O)[C@H]1C(=O)N2C(C(=O)O)=C(SCCN=CN)C[C@H]12 [Imipenem]	S	S	S	
CC1(C)S[C@@H]2[C@H](NC(=O)[C@H](N)c3ccc(O)cc3)C(=O)N2[C@H]1C(=O)O [Amoxicillin]	S	S	R	
CN1CCN(c2c(F)cc3c(=O)c(C(=O)O)cn(CCF)c3c2F)CC1 [Fleroxacin]	S		S	
COc1cc(Cc2cnc(N)nc2N)cc(OC)c1OC [Trimethoprim]	S	S	R	
CC1=C(C(=O)O)N2C(=O)[C@@H](NC(=O)[C@H](N)c3ccccc3)[C@H]2SC1 [Cefalexin]	S	S	S	
CCn1cc(C(=O)O)c(=O)c2cnc(N3CCNCC3)nc21 [Pipemidic acid]	S	S	S	
CCn1cc(C(=O)O)c(=O)c2ccc(C)nc21 [Nalidixic acid]	S	S	S	
NCC[C@H](O)C(=O)N[C@@H]1C[C@H](N)[C@@H](O[C@H]2O[C@H](CN)[C@@H](O)[C@H](O)[C@H]2O)[C@H](O)[C@H]1O[C@H]1O[C@H](CO)[C@@H](O)[C@H](N)[C@H]1O [Amikacin]	S	S	S	
CO/N=C(\C(=O)N[C@@H]1C(=O)N2C(C(=O)O)=C(COC(C)=O)CS[C@H]12)c1csc(N)n1 [Cefotaxime]	S	S	S	
CN[C@H](CC(C)C)C(=O)N[C@H]1C(=O)N[C@@H](CC(N)=O)C(=O)N[C@H]2C(=O)N[C@H]3C(=O)N[C@H](C(=O)N[C@H](C(=O)O)c4cc(O)cc(O)c4-c4cc3ccc4O)[C@H](O)c3ccc(c(Cl)c3)Oc3cc2cc(c3O[C@@H]2O[C@H](CO)[C@@H](O)[C@H](O)[C@H]2O[C@H]2C[C@](C)(N)[C@H](O)[C@H](C)O2)Oc2ccc(cc2Cl)[C@H]1O [Vancomycin]	R	R	R	
CO/N=C(\C(=O)N[C@@H]1C(=O)N2C(C(=O)O)=C(COC(N)=O)CS[C@H]12)c1ccco1 [Cefuroxime]	S	S	S	
[H]/N=C(/N)N[C@H]1[C@H](O)[C@@H](O)[C@H](O[C@@H]2O[C@@H](C)[C@](O)(C=O)[C@H]2O[C@@H]2O[C@@H](CO)[C@H](O)[C@@H](O)[C@@H]2NC)[C@@H](N/C(N)=N\[H])[C@@H]1O [Streptomycin]	R	S	S	
CNC(C)C1CCC(N)C(OC2C(N)CC(N)C(OC3OCC(C)(O)C(NC)C3O)C2O)O1 (stereo not shown) [Gentamicin]	S	S	R	
COc1cccc(OC)c1C(=O)N[C@@H]1C(=O)N2[C@@H]1SC(C)(C)[C@@H]2C(=O)O [Methicillin]	S	S	R	
CCC[C@@H]1C[C@@H](C(=O)N[C@@H]([C@H]2O[C@H](SC)[C@H](O)[C@@H](O)[C@H]2O)[C@H](C)Cl)N(C)C1 [Clindamycin]	R	R	R	
CC1COc2c(N3CCN(C)CC3)c(F)cc3c(=O)c(C(=O)O)cn1c23 (stereo not shown) [Oflaxacin]	S	S	S	S
